“And” between values parts separate entries of the source, which are not always exact repeats. Equal values may be shown once. Inconclusive results and toxic doses are left out. The calls were made as follows: active = survival T/C of 150% or more; inactive = T/C below 125% in these data.
Test system: CD2F1 mice, L1210 leukemia ip, survival T/C
Assay: NCI In Vivo Anticancer Drug Screen. Data for tumor model L1210 Leukemia (intraperitoneal) in CD2F1 (CDF1) mice
Settings: higher = longer survival
How it was run: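 Implant tumor; dose compound or vehicle; measure endpoint in both groups; report treated divided by control.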

[1] = endpoint: mean survival time, dose: 12.5 mg/kg/injection, schedule: Q01DX009 (ip), vehicle: other
[2] = endpoint: mean survival time, dose: 25.0 mg/kg/injection, schedule: Q01DX009 (ip), vehicle: other
[3] = endpoint: mean survival time, dose: 50.0 mg/kg/injection, schedule: Q01DX009 (ip), vehicle: other
[4] = endpoint: mean survival time, dose: 100.0 mg/kg/injection, schedule: Q01DX009 (ip), vehicle: other
[5] = endpoint: mean survival time, dose: 100.0 mg/kg/injection, schedule: Q01DX001 (ip), vehicle: saline
[6] = endpoint: mean survival time, dose: 100.0 mg/kg/injection, schedule: Q01DX001 (ip), vehicle: saline with Tween-80
[7] = endpoint: mean survival time, dose: 200.0 mg/kg/injection, schedule: Q01DX001 (ip), vehicle: saline with Tween-80
[8] = endpoint: mean survival time, dose: 400.0 mg/kg/injection, schedule: Q01DX001 (ip), vehicle: saline with Tween-80

Measured: T/C

CCCCCCCC1SC(=S)NC1=O (stereo not given)
inactive: [1] 95 % of control | [2] 89 % of control | [3] 100 % of control | [4] 91 % of control

C/C([O-])=C/[S+](C)(=O)N(C)C (stereo not given)
inactive: endpoint: mean survival time, dose: 25.0 mg/kg/injection, schedule: Q01DX001 (ip), vehicle: saline 103 % of control | endpoint: mean survival time, dose: 50.0 mg/kg/injection, schedule: Q01DX001 (ip), vehicle: saline 109 % of control | [5] 96 % of control

O=c1nc(NCc2ccco2)ccn1C1OC(CO)C(O)C1O (stereo not given)
inactive: endpoint: median survival time, dose: 12.5 mg/kg/injection, schedule: Q01DX005 (ip), vehicle: water 98 % of control | endpoint: median survival time, dose: 25.0 mg/kg/injection, schedule: Q01DX005 (ip), vehicle: water 106 % of control | endpoint: median survival time, dose: 50.0 mg/kg/injection, schedule: Q01DX005 (ip), vehicle: water 112 % of control | endpoint: median survival time, dose: 100.0 mg/kg/injection, schedule: Q01DX005 (ip), vehicle: water 112 % of control | endpoint: median survival time, dose: 200.0 mg/kg/injection, schedule: Q01DX005 (ip), vehicle: water 108 % of control

O=C(C[n+]1ccccc1/C=N/O)c1ccccc1
inactive: endpoint: mean survival time, dose: 50.0 mg/kg/injection, schedule: Q04DX003 (ip), vehicle: saline with Tween-80 91 % of control

CC1CCCCCC(=O)c2c(O)cc(O)cc2CC(=O)O1 (stereo not given)
inactive: endpoint: mean survival time, dose: 100.0 mg/kg/injection, schedule: Q01DX001 (ip), vehicle: other 95 % of control | endpoint: mean survival time, dose: 200.0 mg/kg/injection, schedule: Q01DX001 (ip), vehicle: other 118 % of control | endpoint: mean survival time, dose: 400.0 mg/kg/injection, schedule: Q01DX001 (ip), vehicle: other 100 % of control

COc1cccc2c1C(=O)c1c(OC)c(C)cc(OC)c1C2=O
inactive: [1] 113 % of control | [2] 110 % of control | [3] 110 % of control | [4] 110 % of control | endpoint: mean survival time, dose: 200.0 mg/kg/injection, schedule: Q01DX009 (ip), vehicle: other 117 % of control

Cc1ccc(C)c(NC(=O)NC2CCCCC2)c1
inactive: [6] 98 % of control | [7] 101 % of control | [8] 101 % of control

CSc1nc(NC2OCC(O)C(O)C2O)cc(=O)[nH]1 (stereo not given)
inactive: endpoint: median survival time, dose: 12.5 mg/kg/injection, schedule: Q01DX005 (ip), vehicle: saline 102 % of control | endpoint: median survival time, dose: 25.0 mg/kg/injection, schedule: Q01DX005 (ip), vehicle: saline 98 % of control | endpoint: median survival time, dose: 50.0 mg/kg/injection, schedule: Q01DX005 (ip), vehicle: saline 100 % of control | endpoint: median survival time, dose: 100.0 mg/kg/injection, schedule: Q01DX005 (ip), vehicle: saline 98 % of control | endpoint: median survival time, dose: 200.0 mg/kg/injection, schedule: Q01DX005 (ip), vehicle: saline 100 % of control

CCCCCCCCCCCCCCCCC(CCC)C1CCCCC1 (stereo not given)
inactive: [6] 92 % of control | [7] 104 % of control | [8] 101 % of control

O.O=S(=O)([O-])O.O=[N+]([O-])O.[Co+3].[NH2-].[NH2-].[NH2-].[NH2-]
inactive: endpoint: mean survival time, dose: 100.0 mg/kg/injection, schedule: Q04DX002 (ip), vehicle: saline with Tween-80 94 % of control | endpoint: mean survival time, dose: 200.0 mg/kg/injection, schedule: Q04DX002 (ip), vehicle: saline with Tween-80 97 % of control

C1=CC23CC(c4ccccc42)C2c4ccccc4C23C=C1 (stereo not given)
inactive: endpoint: mean survival time, dose: 100.0 mg/kg/injection, schedule: Q01DX009 (ip), vehicle: saline with Tween-80 101 % of control | endpoint: mean survival time, dose: 100.0 mg/kg/injection, schedule: Q04DX003 (ip), vehicle: saline with Tween-80 93 % of control | endpoint: mean survival time, dose: 200.0 mg/kg/injection, schedule: Q01DX009 (ip), vehicle: saline with Tween-80 101 % of control | endpoint: mean survival time, dose: 200.0 mg/kg/injection, schedule: Q04DX003 (ip), vehicle: saline with Tween-80 95 % of control | endpoint: mean survival time, dose: 400.0 mg/kg/injection, schedule: Q01DX009 (ip), vehicle: saline with Tween-80 95 % of control | endpoint: mean survival time, dose: 400.0 mg/kg/injection, schedule: Q04DX003 (ip), vehicle: saline with Tween-80 93 % of control

COC1OC(CO)C(O)C(O)C1O (stereo not given)
inactive: [5] 101 % of control and 105 % of control | endpoint: mean survival time, dose: 100.0 mg/kg/injection, schedule: Q04DX003 (ip), vehicle: saline 97 % of control | endpoint: mean survival time, dose: 200.0 mg/kg/injection, schedule: Q01DX001 (ip), vehicle: saline 108 % of control and 105 % of control | endpoint: mean survival time, dose: 200.0 mg/kg/injection, schedule: Q04DX003 (ip), vehicle: saline 102 % of control | endpoint: mean survival time, dose: 400.0 mg/kg/injection, schedule: Q01DX001 (ip), vehicle: saline 101 % of control and 105 % of control | endpoint: mean survival time, dose: 400.0 mg/kg/injection, schedule: Q04DX003 (ip), vehicle: saline 97 % of control

COC1/C=C/C=C(/C)Cc2cc(O)c(Cl)c(c2)N(C)C(=O)CC(OC(=O)C(C)C)C2(C)OC2C(C)C2CC1(O)NC(=O)O2 (stereo not given)
inactive: endpoint: mean survival time, dose: 0.12 mg/kg/injection, schedule: Q01DX009 (ip), vehicle: saline + alcohol 111 % of control | endpoint: mean survival time, dose: 0.5 mg/kg/injection, schedule: Q01DX009 (ip), vehicle: saline + alcohol 111 % of control | endpoint: mean survival time, dose: 1.0 mg/kg/injection, schedule: Q01DX009 (ip), vehicle: saline + alcohol 122 % of control | endpoint: mean survival time, dose: 2.0 mg/kg/injection, schedule: Q01DX009 (ip), vehicle: saline + alcohol 90 % of control | endpoint: median survival time, dose: 0.06 mg/kg/injection, schedule: Q01DX009 (ip), vehicle: saline + alcohol 117 % of control | endpoint: median survival time, dose: 0.12 mg/kg/injection, schedule: Q01DX009 (ip), vehicle: saline + alcohol 117 % of control | endpoint: median survival time, dose: 0.5 mg/kg/injection, schedule: Q01DX009 (ip), vehicle: saline + alcohol 122 % of control | endpoint: median survival time, dose: 1.0 mg/kg/injection, schedule: Q01DX009 (ip), vehicle: saline + alcohol 120 % of control | endpoint: median survival time, dose: 2.0 mg/kg/injection, schedule: Q01DX009 (ip), vehicle: saline + alcohol 123 % of control
